# In paper PMC9952374, “De Novo Design of Imidazopyridine-Tethered Pyrazolines That Target Phosphorylation of STAT3 in Human Breast Cancer Cells” (Bioengineering, 2023):
# Experiments:
# [1] = tested on: nuclear translocation of STAT3 in MCF-7 cells; test: Immunocytochemistry of STAT3 nuclear translocation, MCF-7; type: cell-based, human; conditions: MCF-7, immunocytochemistry, 10 μM for 4 h (method) / 5 μM (Figure 10 legend)
# Procedure: (§1) Finally, we attempted to understand the effect of compound 3f on the blocking of pSTAT3 into nuclear functionally since pSTAT3 dimers could enter the nucleus to give transcription. For this purpose, we conducted an immunocytochemistry assay using MCF-7 and T47D cells. […] We also analyzed the distribution of phospho-STAT3 in the nucleus and cytoplasm using fluorescent-labeled antibodies.
# (§2) As described earlier, STAT3 phosphorylation in cells was quantified. After compound 3f treatment (10 μM for 4 h), cells were fixed for 20 min with paraformaldehyde (4%). Thereafter, cells were treated with 0.2% Triton X-100 in phosphate-buffered saline for permeabilization, followed by blocking with 5% bovine serum albumin for 1 h. Then, the preparation was incubated overnight at 4 °C with a rabbit polyclonal anti-human STAT3 antibody (dilution, 1:100). […] The slides were mounted and analyzed under an Olympus FluoView FV1000 confocal microscope (Tokyo, Japan).
# (§3) Figure 10 The nuclear localization of STAT3 in MCF-7 (A) and T47D (B) cells was inhibited by compound 3f. MCF-7 and T47D cells were treated with the compound 3f (5 μM), and then analyzed for intracellular distribution by immunocytochemistry. […] The fluorescence intensity of p-STAT3 and STAT3 was performed. […]
# [2] = tested on: nuclear translocation of STAT3 in T47D cells; test: Immunocytochemistry of STAT3 nuclear translocation, T47D; type: cell-based, human; conditions: 10 μM for 4 h (method) / 5 μM (Figure 10 legend)
# Procedure: as §1, §2, §3
# MCF-10A cells = test: Alamar Blue cell viability assay, normal MCF-10A; type: cell-based; conditions: Homo sapiens, normal MCF-10A cell viability
# T47D cells = test: Alamar Blue cell viability assay, T47D; type: cell-based, human
# Text: (§4) The goal herein was to assess the ability of imidazopyridine-tethered pyrazolines to inhibit cell viability in mammary carcinoma cells (using the Alamar Blue assay), since pyridine-fused pyrazoles were previously shown to inhibit cell viability in various breast cancer cells. […] The low chemical stability of thio-urea-based compounds may account for the inactivity of most thiourea-conjugated pyrazolines (excluding 4g) against TNBC cells.
# (§5) MCF-7 cells were procured from Procell Life Science and Technology Co. LTD, Wuhan, China. Human breast cancer T47D, BT474, and SK-BR-3 cells were obtained from American Type Culture Collection (Washington, DC, NW, USA). Cells (2000) were cultured in MEM or Leibovitz’s L-15 medium enriched with 2% FBS and maintained in a humidified atmosphere of 5% CO2 at 37 °C. A stock solution of DMSO-dissolved compounds was prepared, and this solution was diluted with culture medium as required. MCF-7 Cells (4 × 10^3) were cultured in 96-well plates for 12 h and then treated for 72 h with compounds at concentrations of […]. Using Alamar Blue, the compounds were evaluated for their inhibitory effects
# BT-474 cells = test: Alamar Blue cell viability assay, BT-474; type: cell-based, human
# Text: as §4, §5
# TNBC cells = test: Effect against TNBC cells; type: cell-based; conditions: in words
# Text: as §4
# SK-BR-3 cells = test: Alamar Blue cell viability assay, SK-BR-3; type: cell-based, human; conditions: Homo sapiens, SK-BR-3 cell viability
# Text: as §4, §5
# [3] = tested on: STAT3 phosphorylation in T47D cells; test: Western blot of STAT3 phosphorylation, T47D; type: cell-based, human
# Procedure: (§6) Therefore, in vitro experiments were performed to evaluate the effect of compound 3f on the phosphorylation of STAT3 in MCF-7 and T47D cells, utilizing our laboratory protocol. For this purpose, Western blot analysis was performed after the treatment of MCF-7 and T47D cells with compound 3f (0, 1, 3, 5 μM) and using p-STAT3 (Tyr705), p-STAT3 (Ser727), and STAT3 antibodies for blotting.
# (§7) As previously reported, whole-cell lysates from cells treated with compound 3f were prepared to detect protein expression and phosphorylation using a lysis buffer [Tris (20 mM, pH 7.4), NaCl (250 mM), EDTA (2 mM, pH 8.0), Triton X-100 (0.1%), aprotinin (0.01 mg/mL), leupeptin (0.005 mg/mL), phenylmethane sulfonyl fluoride (0.4 mM), and NaVO4 (4 mM)]. To remove insoluble material, lysates were centrifuged at 13,000 rpm for 15 min.
# (§8) Equal protein concentrations of cell lysate were resolved on sodium dodecyl sulfate-polyacrylamide gel electrophoresis, followed by transfer to nitrocellulose membranes as reported previously. Incubation was carried out overnight at 4 °C with antibodies after treatment with 5% skim milk. Afterward, the membranes were washed, probed with HRP-conjugated secondary antibodies for 2 h, and then visualized using chemiluminescence.
# (§9) Figure 3 The lead compound 3f decreases the phosphorylation of STAT3 in MCF-7 and T47D cells in a concentration (A) and time-dependent (B) manner. MCF-7 and T47D cells were treated with the indicated concentration of 3f for 4 h. MCF-7 and T47D cells were treated with 5 µM of compound for the indicated time intervals. Thereafter, equal amounts of lysates were analyzed by Western blot analysis using antibodies against p-STAT3(Tyr705), p-STAT3(Ser727), or STAT3. The expression of each protein was quantified. β-ACTIN was used as input control.
# [4] = tested on: STAT3 phosphorylation in MCF-7 cells; test: Western blot of STAT3 phosphorylation, MCF-7; type: cell-based, human
# Procedure: as §6, §7, §8, §9
# MCF-7 cells = test: Alamar Blue cell viability assay, MCF-7; type: cell-based, human; conditions: MCF-7 cell viability
# Text: as §4, §5
# Figure 2 Inhibitory effect of compounds 3f (A), 3e (B), 4g (C), and 3g (D) on the viability of MCF-7 cells. MCF-7 cells were treated with various concentrations of 2-pyrazolines for 72 h and the viability of cells was analyzed by Alamar Blue assays. The results are presented as mean ± S.E.M. of triplicate determinations.
# breast cancer cells = tested on: breast cancer cells; design: method as in PMID 33126089; conditions: read-out: IC50 anti-proliferation against breast cancer cells; cited from earlier work
# [5] = tested on: IL-6-induced STAT3 phosphorylation in patient-derived HGG cells; design: method as in PMID 31361777; conditions: cited from earlier work
# [6] = tested on: phospho-STAT3 in hepatocellular carcinoma cells; design: method as in PMID 30261753; conditions: cited from earlier work
# [7] = T47D, 5 µM, indicated time intervals
# [8] = MCF-7, 5 µM, indicated time intervals
smiles,measurement,setting,value
"Cc1ccc2nc(C)c(C3=NN(C(=O)CN4CCN(c5cccc(Cl)c5Cl)CC4)C(c4cccc([N+](=O)[O-])c4)C3)n2c1 (stereo not shown) [Compound 3f, 2-(4-(2,3-Dichlorophenyl)piperazin-1-yl)-1-(3-(2,6-dimethylimidazo[1,2-a]pyridin-3-yl)-5-(3-nitrophenyl)-4,5-dihydro-1H-pyrazol-1-yl)ethanone]",nuclear translocation of STAT3,[1],inhibited the nuclear translocation
same,nuclear translocation of pSTAT3,[1],block the nuclear translocation
same,nuclear translocation of STAT3,[2],inhibited the nuclear translocation
same,nuclear translocation of pSTAT3,[2],block the nuclear translocation
same,IC50,MCF-10A cells,> 100 µM
same,IC50,"T47D cells; Homo sapiens, T47D cell viability, Alamar Blue",23.5 ± 1.25 µM
same,viability of T47D cells,T47D cells; in words,inhibited in a dose-dependent manner
same,IC50,"BT-474 cells; Homo sapiens, BT-474 cell viability, Alamar Blue",13.9 ± 1.32 µM
same,viability of BT-474 cells,BT-474 cells; in words,inhibited in a dose-dependent manner
same,melting point,,122 to 124 °C
same,effect against TNBC cells,TNBC cells,significant effect
same,IC50,SK-BR-3 cells,> 100 µM
same,"phosphorylation level of STAT3 at Ser727, dose dependence","[3]; T47D, 0, 1, 3, 5 μM, 4 h",reduced the phosphorylation level
same,"phosphorylation level of STAT3 at Tyr705, dose dependence","[3]; T47D, 0, 1, 3, 5 μM, 4 h",reduced the phosphorylation level
same,total STAT3 protein expression,"[3]; T47D, 0, 1, 3, 5 μM, 4 h",without affecting the total STAT3 protein expression
same,"phosphorylation of STAT3 at Ser727, time dependence",[3]; [7],reduced the phosphorylation
same,"phosphorylation of STAT3 at Tyr705, time dependence",[3]; [7],reduced the phosphorylation
same,"phosphorylation level of STAT3 at Ser727, dose dependence","[4]; MCF-7, 0, 1, 3, 5 μM, 4 h",reduced the phosphorylation level
same,"phosphorylation level of STAT3 at Tyr705, dose dependence","[4]; MCF-7, 0, 1, 3, 5 μM, 4 h",reduced the phosphorylation level
same,total STAT3 protein expression,"[4]; MCF-7, 0, 1, 3, 5 μM, 4 h",without affecting the total STAT3 protein expression
same,"phosphorylation of STAT3 at Ser727, time dependence",[4]; [8],reduced the phosphorylation
same,"phosphorylation of STAT3 at Tyr705, time dependence",[4]; [8],reduced the phosphorylation
same,IC50,"MCF-7 cells; Homo sapiens, MCF7, 72 h",9.2 µM
same,IC50,MCF-7 cells; 72 h,9.27 ± 0.97 µM
COc1cc(Nc2cc(-c3ccnn3C)cc3cc(C(C)=O)oc23)cc(OC)c1 [Compound C6],IC50,breast cancer cells,0.16 µM
CC(C)CCc1cc(-c2ccc(Br)cc2)n(-c2ccc(S(N)(=O)=O)cc2)n1 [MNS1-Leu],"Akt, STAT1, JAK2, or ERK1/2 phosphorylation",[5],without adversely affecting
same,IL-6-induced STAT3 phosphorylation,[5],inhibited
COc1cc(-c2cc3ccccc3[nH]2)[nH]c1-c1nc2cc(Br)cnc2[nH]1 [compound 16],level of phospho-STAT3 and downstream signaling cascades,[6],reduce the level
